For one experiment, the system named is Candida albicans. Description: Growth inhibition of C. albicans (FIG. 6). The note with it: for inhibitory activity against C. albicans: at a concentration of 1000 μg/mL; for inhibition of Candida albicans (summary statement): no concentration stated. It counts as cell-based. The source says:
FIG. 6 is a graph depicting dose-dependent inhibition of the yeast C. albicans by sinapyl aldehyde ([…]), coniferyl aldehyde (∘), and p-hydroxycoumaryl aldehyde (▾).
FIG. 6 depicts dose-dependent inhibition of C. albicans by sinapyl aldehyde ([…]), coniferyl aldehyde (∘), and p-hydroxycoumaryl aldehyde (▾). Here, the inhibition was not as pronounced as against S. cerevisiae.

In a further experiment the test system is S. sclerotiorum. Description: Colony growth inhibition of S. sclerotiorum (FIG. 4). It counts as cell-based, Sclerotinia sclerotiorum. As to conditions: for inhibition of Sclerotinia sclerotiorium (summary statement): no concentration stated; for growth of the colony: S. sclerotiorum, 250, 500 and 1,000 μg/mL vs untreated control (DMSO), dose-dependent. The procedure: FIG. 4 is a series of photographs illustrating dose-dependent inhibition of Scelerotinia sclerotiorium by sinapyl aldehyde (top row) and coniferyl aldehyde (bottom row) at concentrations of 250 μg/mL, 500 μg/mL, and 1,000 μg/mL.
FIG. 4 is a series of photographs analogous to FIG. 1, but showing the ability of sinapldehyde and coniferyl aldehyde to attenuate the grown of S. sclerotiorum. […] White mold is particularly significant economically because it affects a wide range of hosts. It is also capable of infecting plants at any stage of growth makes. S. sclerotiorum, can survive on infected tissues, in the soil, and on living plants. It affects young seedlings, mature plants, and fruit in the field or in storage. […] It can also propagate throughout a harvested crop if conditions are not monitored carefully. It infects many extensively planted crops, including soybeans, green beans, sunflowers, canola, and peanuts.

The test system of another experiment is Alternaria solani. The experiment can be described thus: Colony growth inhibition of Alternaria solani (FIG. 1). It counts as cell-based. The note with it: for inhibition of Alternaria solani (summary statement): no concentration stated; for growth of the colony: A. solani, 250, 500 and 1,000 μg/mL vs untreated control (DMSO), dose-dependent. The procedure: FIG. 1 is a series of photographs illustrating dose-dependent inhibition of Alternaria solani by sinapaldehyde (top row) and coniferyl aldehyde (bottom row) at concentrations of 250 μg/mL, 500 μg/mL, and 1,000 μg/mL.
Without aggressive early control of the pathogen, early blight causes significant yield reductions.

Another experiment has as its system Saccharomyces cerevisiae. The experiment can be described thus: Growth inhibition of the yeast S. cerevisiae (FIG. 5). It counts as cell-based. As to conditions: for inhibition of S. cerevisiae: at 500 μg/mL; for inhibition of Saccharomyces cerevisiae (summary statement): no concentration stated. The source says: FIG. 5 is a graph depicting dose-dependent inhibition of the yeast S. cerevisiae by sinapyl aldehyde ([…]), coniferyl aldehyde (∘), and p-hydroxycoumaryl aldehyde (▾).
FIG. 5 depicts dose-dependent inhibition of S. cerevisiae by sinapyl aldehyde ([…]), coniferyl aldehyde (∘), and p-hydroxycoumaryl aldehyde (▾).

A further experiment has as its system Alternaria alternata. The experiment can be described thus: Colony growth inhibition of Alternaria alternata (FIGS. 2, 3). It counts as cell-based. The note with it: for inhibition of Alternaria alternata (summary statement): no concentration stated; for colony size: end of six days. The method, then: FIG. 2 is a graph depicting dose-dependent inhibition of Alternaria alternata by sinapyl aldehyde. Control=[…]. 250 μg/mL=∘. 500 μg/mL=▾. 1,000 μg/mL=Δ.
FIG. 3 is a graph depicting dose-dependent inhibition of Alternaria alternata by coniferyl aldehyde. Control=[…]. 250 μg/mL=∘. 500 μg/mL=▾. 1,000 μg/mL=Δ.
Similar to FIG. 1, FIG. 2 is a graph depicting dose-dependent inhibition of Alternaria alternata by sinapyl aldehyde. Time in days is on the X-axis; colony size in cm is on the Y-axis. […] A. alternata has also been implicated as a causative agent of asthma in humans. Salo et al. (October 2006) “Exposure to Alternaria alternata in US homes is associated with asthma symptoms” J Allergy Clin Immunol.; 118(4): 892-898.
(Control=[…]. 250 μg/mL=∘. 500 μg/mL=▾. 1,000 μg/mL=Δ.)

This is an account of results in patent publication US20170296490A1, “USE OF LIGNIN-DERIVED ALDEHYDES AS ANTIFUNGAL AGENTS” (Wisconsin Alumni Research Foundation, priority 2016, published 2017).

In the case of `O=C/C=C/c1ccc(O)cc1` [p-hydroxycoumaryl aldehyde], in the experiment on Candida albicans, the “inhibitory activity against C. albicans” value is “very signification inhibitory activity” and the “inhibition of Candida albicans (summary statement)” value (“inhibition of Candida albicans” below) is listed as “show inhibition”. For the same compound, the “inhibition of Sclerotinia sclerotiorium (summary statement)” value (from here on “inhibition of Sclerotinia sclerotiorium”) with S. sclerotiorum was “show inhibition”. In addition, the “inhibition of Alternaria solani (summary statement)” value (“inhibition of Alternaria solani” below) in the experiment with Alternaria solani was “show inhibition”. For the same compound, in the experiment on Saccharomyces cerevisiae, the “inhibition of S. cerevisiae” value is reported as “very significant inhibition” and the “inhibition of Saccharomyces cerevisiae (summary statement)” value (shortened to “inhibition of Saccharomyces cerevisiae”) is on record as “show inhibition”. Moreover, the “inhibition of Alternaria alternata (summary statement)” value (“inhibition of Alternaria alternata” below) in the experiment with Alternaria alternata is listed as “show inhibition”.
As for `COc1cc(/C=C/C=O)ccc1O` [coniferyl aldehyde], in the experiment on Candida albicans, the “inhibitory activity against C. albicans” value was “very signification inhibitory activity” and the “inhibition of Candida albicans” value is “show inhibition”. Further, in the experiment with S. sclerotiorum, the “growth of the colony” value is “very significantly inhibited” and the “inhibition of Sclerotinia sclerotiorium” value was “show inhibition”. For the same compound, in the experiment with Alternaria solani, the “growth of the colony” value is “very significantly inhibited” and the “inhibition of Alternaria solani” value is recorded as “show inhibition”. Besides, in the experiment with Saccharomyces cerevisiae, the “inhibition of S. cerevisiae” value is reported as “very significant inhibition” and the “inhibition of Saccharomyces cerevisiae” value is reported as “show inhibition”. For the same compound, in the experiment on Alternaria alternata (A. alternata, 250, 500 and 1,000 μg/mL treatment groups, six days), the “growth rates and colony size” value was “progressively attenuated growth rates and smaller colony size”. The “inhibition of Alternaria alternata” value with Alternaria alternata is on record as “show inhibition”.
Regarding `COc1cc(/C=C/C=O)cc(OC)c1O` [sinapyl aldehyde], in the experiment with Candida albicans, the “inhibition of Candida albicans” value is recorded as “show inhibition”. In the experiment with S. sclerotiorum, the “growth of the colony” value is “very significantly inhibited” and the “inhibition of Sclerotinia sclerotiorium” value is reported as “show inhibition”. In addition, in the experiment on Alternaria solani, the “growth of the colony” value is given as “very significantly inhibited” and the “inhibition of Alternaria solani” value is “show inhibition”. For the same compound, in the experiment with Saccharomyces cerevisiae, the “inhibition of S. cerevisiae” value is recorded as “very significant inhibition” and the “inhibition of Saccharomyces cerevisiae” value is “show inhibition”. Besides, the colony size result in the experiment on Alternaria alternata (A. alternata, 250 μg/mL) is reported as “smaller than the untreated colony”. Besides, in the experiment on Alternaria alternata (A. alternata, 500 μg/mL), the colony size entry is “smaller still”. Further, in the experiment with Alternaria alternata (A. alternata, 1,000 μg/mL), the colony size entry is recorded as “the smallest of those tested”. Further, in the experiment on Alternaria alternata, the “inhibition of Alternaria alternata” value is “show inhibition”.
